Experimental data: US20240108738A1, “BICYCLIC PEPTIDE LIGANDS SPECIFIC FOR NK CELLS” (Bicycle Tx Limited, priority 2021, published 2024)
Numbered stars: 1 amine (or outer) side, 2 acyl side, 3 side chain; on linkers, the order of the positions; unused ones are H or OH. Bridge positions count the residues as written; N and C are the ends. Square brackets hold non-standard residues; d marks the D form. Peptide text beside a SMILES is read from it. TATA = O=C(CC[*:1])N1CN(C(=O)CC[*:2])CN(C(=O)CC[*:3])C1; Dopa = N[C@@H](Cc1ccc(O)c(O)c1)C(=O)O; Cba = N[C@@H](CC1CCC1)C(=O)O; Pen = CC(C)(S)[C@H](N)C(=O)O; Pip = O=C(O)[C@@H]1CCCCN1; Nva = CCC[C@H](N)C(=O)O; Dap = NC[C@H](N)C(=O)O

Target: T1, Fc-tagged human NKp46 (Homo sapiens, UniProt O76036)
T1 construct: purchased ACROBiosystems NC1-H5257
Experiment: NKp46 SPR assay (Method 1 and/or Method 2)
Format: binding
Conditions: SPR Method 1 and/or Method 2, Table 3B
In short: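 Method 1: biotinylated Avi-tag NKp46-Fc on streptavidin chip, peptides to 100-5000 nM top in PBS/0.05% Tween 20, 0.5% DMSO; 1:1 kinetic fit with mass transport. Method 2: NKp46-Fc captured by anti-Fc, PBS-P+ 2% DMSO; steady-state or kinetic 1:1 fit. Both 25° C, 50 μl/min, 60 s association.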

T1 sequence (O76036 22-304): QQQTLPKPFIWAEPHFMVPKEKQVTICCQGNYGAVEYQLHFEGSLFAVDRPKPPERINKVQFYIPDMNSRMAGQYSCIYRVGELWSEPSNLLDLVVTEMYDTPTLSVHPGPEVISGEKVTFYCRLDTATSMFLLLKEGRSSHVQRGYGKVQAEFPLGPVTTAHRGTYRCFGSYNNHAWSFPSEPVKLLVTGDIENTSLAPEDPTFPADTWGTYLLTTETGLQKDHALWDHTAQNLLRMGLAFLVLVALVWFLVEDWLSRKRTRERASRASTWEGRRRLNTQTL

How did the Kd turn out when `CC(=O)N[C@H]1CSCCC(=O)N2CN3CN(C2)C(=O)CCSC[C@H](NC(=O)[C@H](CC(C)C)NC(=O)[C@H](Cc2ccc(O)c(O)c2)NC(=O)[C@H](CC(=O)O)NC(=O)[C@@H]2CCCN2C(=O)[C@H](CC2CCC2)NC(=O)[C@H](Cc2ccc(O)cc2)NC1=O)C(=O)N[C@H](C)C(=O)N[C@@H](CC(=O)O)C(=O)N[C@@H](CCC(=O)O)C(=O)N[C@@H](Cc1ccc(O)cc1)C(=O)N[C@H](C(N)=O)CSCCC3=O` [BCY19686, Ac-(SEQ ID NO: 150)] (Ac-CY[Cba]PD[Dopa]LC[dA]DEYC-NH2; linker 1-8-13 via TATA; C-terminus assumed) was run?
The Kd was 0.044 µM.

With `CC(=O)N[C@@H]1C(=O)N[C@@H](Cc2ccc(O)cc2)C(=O)N[C@@H](CC2CCC2)C(=O)N2CCC[C@H]2C(=O)N[C@@H](CC(=O)O)C(=O)N[C@@H](Cc2ccc(O)cc2)C(=O)N[C@@H](CC(C)C)C(=O)N[C@H]2CSCCC(=O)N3CN(CN(C3)C(=O)CCSC1(C)C)C(=O)CCSC[C@@H](C(N)=O)NC(=O)[C@H](Cc1ccc(O)cc1)NC(=O)[C@H](CCC(=O)O)NC(=O)[C@H](CC(=O)O)NC(=O)[C@@H](C)NC2=O` [BCY19689, Ac-(SEQ ID NO: 153)] (Ac-[Pen]Y[Cba]PDYLC[dA]DEYC-NH2; linker 1-8-13 via TATA; C-terminus assumed) as the compound, how does the Kd read?
Its Kd is 0.016 µM.

`CC(=O)N[C@H]1CSCCC(=O)N2CN3CN(C2)C(=O)CCSC(C)(C)[C@@H](C(N)=O)NC(=O)[C@H](Cc2ccc(O)cc2)NC(=O)[C@H](CCC(=O)O)NC(=O)[C@H](CC(=O)O)NC(=O)[C@@H](C)NC(=O)[C@H](CSCCC3=O)NC(=O)[C@H](CC(C)C)NC(=O)[C@H](Cc2ccc(O)cc2)NC(=O)[C@H](CC(=O)O)NC(=O)[C@@H]2CCCN2C(=O)[C@H](CC2CCC2)NC(=O)[C@H](Cc2ccc(O)cc2)NC1=O` [BCY19691, Ac-(SEQ ID NO: 155)] (Ac-CY[Cba]PDYLC[dA]DEY[Pen]-NH2; linker 1-8-13 via TATA) was tested. Which Kd did it give?
The Kd was > 0.5 µM.

`CC(=O)N[C@H]1CSCCC(=O)N2CN3CN(C2)C(=O)CCSC[C@H](C(N)=O)NC(=O)[C@H](Cc2ccc(O)cc2)NC(=O)[C@H](CCC(=O)O)NC(=O)[C@H](CC(=O)O)NC(=O)[C@@H](C)NC(=O)[C@H](CSCCC3=O)NC(=O)[C@H](CC(C)C)NC(=O)[C@H](Cc2ccc(O)cc2)NC(=O)[C@H](CC(=O)O)NC(=O)[C@@H]2CCCN2C(=O)[C@H](CC2CCC2)NC(=O)[C@H](Cc2ccc(O)cc2)NC1=O` [BCY19692, Ac-(SEQ ID NO: 156)] (Ac-CY[Cba]PDYLC[dA]DEY[dC]-NH2; linker 1-8-13 via TATA) was tested. Which Kd did it give?
Its Kd is > 0.5 µM.

How did the Kd turn out when `CC(=O)N[C@@H]1CSCCC(=O)N2CN3CN(C2)C(=O)CCSC[C@H](NC(=O)[C@H](CC(C)C)NC(=O)[C@H](Cc2ccc(O)cc2)NC(=O)[C@H](CC(=O)O)NC(=O)[C@@H]2CCCN2C(=O)[C@H](CC2CCC2)NC(=O)[C@H](Cc2ccc(O)cc2)NC1=O)C(=O)N[C@H](C)C(=O)N[C@@H](CC(=O)O)C(=O)N[C@@H](CCC(=O)O)C(=O)N[C@@H](Cc1ccc(O)cc1)C(=O)N[C@H](C(N)=O)CSCCC3=O` [BCY19693, Ac-(SEQ ID NO: 157)] (Ac-[dC]Y[Cba]PDYLC[dA]DEYC-NH2; linker 1-8-13 via TATA; C-terminus assumed) was run?
Its Kd is 0.017 µM.

`CSCC[C@@H]1NC(=O)[C@@H]2CSCCC(=O)N3CN(CN(C3)C(=O)CCSC[C@H](N)C(=O)N[C@@H](CC(N)=O)C(=O)N[C@@H](CC(C)C)C(=O)N[C@@H](CCC(N)=O)C(=O)N[C@@H](C)C(=O)N3CCC[C@H]3C(=O)N2)C(=O)CCSC[C@@H](C(=O)N[C@@H](C)C(N)=O)NC(=O)[C@H](C(C)C)NC(=O)[C@H](CCCCN)NC(=O)CNC(=O)[C@H]([C@@H](C)O)NC(=O)[C@H](CC(C)C)NC1=O` [BCY19694, (SEQ ID NO: 4)-A] (H-CNLQAPCMLTGKVCA-NH2; linker 1-7-14 via TATA) was tested. Which Kd did it give?
The Kd was 2.51 µM.

Which Kd does the source give for `CSCC[C@@H]1NC(=O)[C@@H]2CSCCC(=O)N3CN(CN(C3)C(=O)CCSC[C@H](NC(=O)[C@@H](N)CCCCN)C(=O)N[C@@H](CC(N)=O)C(=O)N[C@@H](CC(C)C)C(=O)N[C@@H](CCC(N)=O)C(=O)N[C@@H](C)C(=O)N3CCC[C@H]3C(=O)N2)C(=O)CCSC[C@@H](C(=O)N[C@@H](C)C(N)=O)NC(=O)[C@H](C(C)C)NC(=O)[C@H](CCCCN)NC(=O)CNC(=O)[C@H]([C@@H](C)O)NC(=O)[C@H](CC(C)C)NC1=O` [BCY19695, K-(SEQ ID NO: 4)-A] (H-KCNLQAPCMLTGKVCA-NH2; linker 2-8-15 via TATA; N-terminus assumed) here?
Its Kd is 2.38 µM.

Which Kd does the source give for `CSCC[C@@H]1NC(=O)[C@@H]2CSCCC(=O)N3CN(CN(C3)C(=O)CCSC[C@H](NC(=O)[C@@H](N)CN)C(=O)N[C@@H](CC(N)=O)C(=O)N[C@@H](CC(C)C)C(=O)N[C@@H](CCC(N)=O)C(=O)N[C@@H](C)C(=O)N3CCC[C@H]3C(=O)N2)C(=O)CCSC[C@@H](C(=O)N[C@@H](C)C(N)=O)NC(=O)[C@H](C(C)C)NC(=O)[C@H](CCCCN)NC(=O)CNC(=O)[C@H]([C@@H](C)O)NC(=O)[C@H](CC(C)C)NC1=O` [BCY19697, Dap-(SEQ ID NO: 4)-A] (H-[Dap]CNLQAPCMLTGKVCA-NH2; linker 2-8-15 via TATA) here?
The Kd was 3.73 µM.

How did the Kd turn out when `CSCC[C@@H]1NC(=O)[C@@H]2CSCCC(=O)N3CN(CN(C3)C(=O)CCSC[C@@H](C(=O)N[C@@H](C)C(N)=O)NC(=O)[C@H](C(C)C)NC(=O)[C@H](CCCCN)NC(=O)CNC(=O)[C@H]([C@@H](C)O)NC(=O)[C@H](CC(C)C)NC1=O)C(=O)CCSC[C@H](NC(=O)[C@H](C)N)C(=O)N[C@@H](CC(N)=O)C(=O)N[C@@H](CC(C)C)C(=O)N[C@@H](CCC(N)=O)C(=O)N[C@@H](C)C(=O)N1CCCC[C@H]1C(=O)N2` [BCY19701, A-(SEQ ID NO: 92)-A] (H-ACNLQA[Pip]CMLTGKVCA-NH2; linker 2-8-15 via TATA) was run?
Its Kd is 4.03 µM.

For `CSCC[C@@H]1NC(=O)[C@@H]2CSCCC(=O)N3CN(CN(C3)C(=O)CCSC[C@@H](C(=O)N[C@@H](C)C(N)=O)NC(=O)[C@H](C(C)C)NC(=O)[C@H](CCCCN)NC(=O)CNC(=O)[C@H]([C@@H](C)O)NC(=O)[C@H](C(C)C)NC1=O)C(=O)CCSC[C@H](NC(=O)[C@H](C)N)C(=O)N[C@@H](CC(N)=O)C(=O)N[C@@H](CC(C)C)C(=O)N[C@@H](CCC(N)=O)C(=O)N[C@@H](C)C(=O)N1CCC[C@H]1C(=O)N2` [BCY19702, A-(SEQ ID NO: 93)-A] (H-ACNLQAPCMVTGKVCA-NH2; linker 2-8-15 via TATA; N-terminus assumed), which Kd is on record?
The Kd was 2.68 µM.

How did the Kd turn out when `CCC[C@@H]1NC(=O)[C@H](CCSC)NC(=O)[C@@H]2CSCCC(=O)N3CN(CN(C3)C(=O)CCSC[C@@H](C(=O)N[C@@H](C)C(N)=O)NC(=O)[C@H](C(C)C)NC(=O)[C@H](CCCCN)NC(=O)CNC(=O)[C@H]([C@@H](C)O)NC1=O)C(=O)CCSC[C@H](NC(=O)[C@H](C)N)C(=O)N[C@@H](CC(N)=O)C(=O)N[C@@H](CC(C)C)C(=O)N[C@@H](CCC(N)=O)C(=O)N[C@@H](C)C(=O)N1CCC[C@H]1C(=O)N2` [BCY19704, A-(SEQ ID NO: 95)-A] (H-ACNLQAPCM[Nva]TGKVCA-NH2; linker 2-8-15 via TATA; N-terminus assumed) was run?
Its Kd is 1.62 µM.

For `CSCC[C@@H]1NC(=O)[C@@H]2CSCCC(=O)N3CN(CN(C3)C(=O)CCSC[C@@H](C(=O)N[C@@H](C)C(N)=O)NC(=O)[C@H](C(C)C)NC(=O)[C@H](CCCCN)NC(=O)CNC(=O)[C@H]([C@@H](C)O)NC(=O)[C@H](Cc3c[nH]cn3)NC1=O)C(=O)CCSC[C@H](NC(=O)[C@H](C)N)C(=O)N[C@@H](CC(N)=O)C(=O)N[C@@H](CC(C)C)C(=O)N[C@@H](CCC(N)=O)C(=O)N[C@@H](C)C(=O)N1CCC[C@H]1C(=O)N2` [BCY19711, A-(SEQ ID NO: 100)-A] (H-ACNLQAPCMHTGKVCA-NH2; linker 2-8-15 via TATA; N-terminus assumed), which Kd is on record?
Its Kd is 2.75 µM.

With `CC(C)C[C@@H]1NC(=O)[C@H](CC(N)=O)NC(=O)[C@@H](NC(=O)[C@H](C)N)CSCCC(=O)N2CN3CN(C2)C(=O)CCSC[C@H](NC(=O)[C@@H]2CCCN2C(=O)[C@H](C)NC(=O)[C@H](CCC(N)=O)NC1=O)C(=O)N[C@@H](CC(C)C)C(=O)N[C@@H](Cc1c[nH]cn1)C(=O)N[C@@H]([C@@H](C)O)C(=O)NCC(=O)N[C@@H](CCCCN)C(=O)N[C@@H](C(C)C)C(=O)N[C@H](C(=O)N[C@@H](C)C(N)=O)CSCCC3=O` [BCY19712, A-(SEQ ID NO: 101)-A] (H-ACNLQAPCLHTGKVCA-NH2; linker 2-8-15 via TATA; C-terminus assumed) as the compound, how does the Kd read?
Its Kd is 3.14 µM.

Which Kd does the source give for `CSCC[C@@H]1NC(=O)[C@@H]2CSCCC(=O)N3CN(CN(C3)C(=O)CCSC[C@@H](C(=O)N[C@@H](C)C(N)=O)NC(=O)[C@H](C(C)C)NC(=O)[C@H](CCCCN)NC(=O)CNC(=O)[C@H]([C@@H](C)O)NC(=O)[C@H](CCC(N)=O)NC1=O)C(=O)CCSC[C@H](NC(=O)[C@H](C)N)C(=O)N[C@@H](CC(N)=O)C(=O)N[C@@H](CC(C)C)C(=O)N[C@@H](CCC(N)=O)C(=O)N[C@@H](CCC(N)=O)C(=O)N[C@@H](C)C(=O)N2` [BCY19713, A-(SEQ ID NO: 102)-A] (H-ACNLQQACMQTGKVCA-NH2; linker 2-8-15 via TATA; N-terminus assumed) here?
Its Kd is 1.83 µM.

`CC[C@H](C)[C@@H]1NC(=O)CNC(=O)[C@H](Cc2c[nH]c3ccccc23)NC(=O)[C@H](CCC(N)=O)NC(=O)[C@@H]2CSCCC(=O)N3CN(CN(C3)C(=O)CCSC[C@H](N)C(=O)N[C@@H](CC(=O)O)C(=O)N[C@@H](CC(C)C)C(=O)N[C@@H]([C@@H](C)O)C(=O)N[C@@H]([C@@H](C)O)C(=O)N[C@@H](Cc3c[nH]cn3)C(=O)N[C@@H](CC(N)=O)C(=O)N2)C(=O)CCSC[C@@H](C(=O)N[C@@H](C)C(N)=O)NC1=O` [BCY19718, (SEQ ID NO: 11)-A] (H-CDLTTHNCQWGICA-NH2; linker 1-8-13 via TATA) was tested. Which Kd did it give?
Its Kd is 1.11 µM.

Which Kd does the source give for `CC[C@H](C)[C@@H]1NC(=O)CNC(=O)[C@H](Cc2c[nH]c3cc(C)ccc23)NC(=O)[C@H](CCC(N)=O)NC(=O)[C@@H]2CSCCC(=O)N3CN(CN(C3)C(=O)CCSC[C@@H](C(=O)N[C@@H](C)C(N)=O)NC1=O)C(=O)CCSC[C@H](NC(=O)[C@H](C)N)C(=O)N[C@@H](CC(=O)O)C(=O)N[C@@H](CC(C)C)C(=O)N[C@@H]([C@@H](C)O)C(=O)N[C@@H]([C@@H](C)O)C(=O)N[C@@H](Cc1c[nH]cn1)C(=O)N[C@@H](CC(N)=O)C(=O)N2` [BCY19722, A-(SEQ ID NO: 160)-A] here?
Its Kd is 1.46 µM.
